Data: paper PMC9354954, “Assessing Bioavailability and Bioactivity of 4-Hydroxythiazolidine-2-Thiones, Newly Discovered Glucosinolate Degradation Products Formed During Domestic Boiling of Cabbage” (Frontiers in Nutrition, 2022)

Assays:
HepG2 cells = assay: Uptake into HepG2 cells (supernatant before and after cell lysis, LC-MS/MS); assay type: in vitro ADME, human; settings: for Amount of analyte in supernatant after cell lysis / Amount of analyte in supernatant before cell lysis / Increase due to cell lysis: HepG2, 100 μM, 24 h
Protocol: Cells originated from a human liver cancer cell line (HepG2) were grown in RPMI-1640 medium + 10% FBS + 1% penicillin/streptomycin under cell culture conditions (37°C and 5% CO2 atmosphere) in T-75 flasks (Sarsted, Nümbrecht, Germany) until a confluence of approximately 50%. This medium and growing conditions were used for all experiments with HepG2 cells in this study. The medium was exchanged by fresh medium for control samples, or by fresh medium containing a concentration of 100 μM allyl HTT or 4-MSOB HTT. Afterward, the cells were incubated for an additional 24 h (each prepared for three cell passages). In the case of cell experiments, all allyl HTT or 4-MSOB HTT spiked media were sterile filtered using Filtropur S 0.2 sterile from Sarstedt AG & Co (Nümbrecht, Germany). After treatment, the medium of HepG2 cells (~80% confluence) was removed and cells were washed three times with 6 mL of PBS. In a second approach performed only for 4-MSOB HTT, treated cells were washed 6 times with 6 mL of PBS. The higher number of washing steps in the case of 4-MSOB HTT was chosen to remove the analyte residues from the former treatment medium more effectively. This enabled to detect a significant increase in analyte amount due to cell lysis when comparing the analyte amount in the supernatant before and after cell lysis, as only three washing steps for allyl HTT and control were not sufficient to detect a significant difference in 4-MSOB HTT amounts due to cell lysis treatment. Afterward, cells were detached from the surface by incubation with 1.5 mL trypsin/EDTA (1 x) for 5 min at 37°C. The cell suspension was transferred into a 2-mL micro reaction vessel and centrifuged for 2 min at 560 g. Then, the cell pellet was washed carefully twice with 1.5 mL of pure water to remove further residues of the analyte spiked medium and to reduce the salt concentration in the samples for LC-MS/MS measurements. For cell lysis, the micro reaction vessels with cell pellet and approximately 60 μL supernatant were sonicated for 15 min in an ultrasonic bath, followed by the addition of 40 μL of MeCN and an additional sonication step for 15 min. Afterward, the cell suspension was centrifuged for 3 min at 4,000 g, and the supernatant, as well as the supernatant before cell lysis, were analyzed by LC-MS/MS. A standard addition method was used, with added amounts of 3 pmol of allyl HTT and 1.2 pmol of 4-MSOB HTT. The mass spectrometry parameters were like QTRAP method 1 (see Section Uptake and Excretion of 4-Hydroxythiazolidine-2-Thiones From a Red Cabbage Meal – A Human Self-Experiment) with an injection volume of 10 μL. The used HPLC method 3 was a gradient of A = water and B = MeCN with 0 to 5 min 2% B, an increase to 14 min up to 98% B, holding for 5 min followed by a decrease to 2% B at 20 min and re-equilibration with 2% B for 4 min, using a flow rate of 300 μL/min, Agilent Zorbax Eclipse Plus C8 column (see Section Stability of 4-Hydroxythiazolidine-2-Thiones in a Stomach Model) and a column oven temperature of 35°C. The given results are the mean of the three biological replicates ± SD. […] The significance of the difference in analyte amount before and after cell lysis was determined by t-test for independent samples per variable using the STATISTICA version 13.5 software (StatSoft, Hamburg, Germany) with a significance level of p ≤ 0.05.

[1] = target: T1, glycogen synthase kinases-3α (Homo sapiens, UniProt P49840); assay: GSK-3 inhibition, Z'-LYTE kinase assay; assay type: biochemical
T1 construct: purchased Life Technologies/Thermo Fisher Scientific, SelectScreen Services (Madison, WI, USA)
T1 sequence (P49840 whole entry): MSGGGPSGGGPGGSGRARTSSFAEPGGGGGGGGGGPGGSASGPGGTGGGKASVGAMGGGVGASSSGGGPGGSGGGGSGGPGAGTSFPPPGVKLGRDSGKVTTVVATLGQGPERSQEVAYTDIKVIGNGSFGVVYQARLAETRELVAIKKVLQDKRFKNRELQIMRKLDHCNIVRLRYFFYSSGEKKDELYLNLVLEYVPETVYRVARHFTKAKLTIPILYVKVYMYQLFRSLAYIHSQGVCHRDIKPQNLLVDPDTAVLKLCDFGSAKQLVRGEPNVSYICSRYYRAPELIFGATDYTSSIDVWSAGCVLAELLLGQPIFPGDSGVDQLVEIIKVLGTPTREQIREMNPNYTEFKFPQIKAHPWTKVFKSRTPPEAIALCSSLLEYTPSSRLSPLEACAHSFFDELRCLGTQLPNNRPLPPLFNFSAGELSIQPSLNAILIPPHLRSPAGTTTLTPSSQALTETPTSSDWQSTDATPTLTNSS
Protocol: (§1) The determination of the inhibition of glycogen synthase kinases-3α and -3β by allyl HTT and 4-MSOB HTT was performed via contract research with Life Technologies/Thermo Fisher Scientific by sending the compounds dissolved in 100% DMSO to SelectScreen Services (Madison, WI, USA). The tested concentrations in the Z'-LYTE assay were up to 100 μM and standards were prepared as duplicates. The Z'-LYTE kinase assay is a fluorescence-based assay using a coupled-enzyme format and the different sensitivity of phosphorylated and non-phosphorylated peptides regarding their fluorescence. The data are shown as mean ± SD. Due to the impression of significant bioactivity, further comparisons were performed. […] Stars report different significance levels: ^*p ≤ 0.05, ^**p ≤ 0.01, and ^***p ≤ 0.001.

[2] = target: T2, glycogen synthase kinases-3β (Homo sapiens, UniProt P49841); assay: GSK-3 inhibition, Z'-LYTE kinase assay; assay type: biochemical
T2 construct: purchased Life Technologies/Thermo Fisher Scientific, SelectScreen Services (Madison, WI, USA)
T2 sequence (P49841 whole entry): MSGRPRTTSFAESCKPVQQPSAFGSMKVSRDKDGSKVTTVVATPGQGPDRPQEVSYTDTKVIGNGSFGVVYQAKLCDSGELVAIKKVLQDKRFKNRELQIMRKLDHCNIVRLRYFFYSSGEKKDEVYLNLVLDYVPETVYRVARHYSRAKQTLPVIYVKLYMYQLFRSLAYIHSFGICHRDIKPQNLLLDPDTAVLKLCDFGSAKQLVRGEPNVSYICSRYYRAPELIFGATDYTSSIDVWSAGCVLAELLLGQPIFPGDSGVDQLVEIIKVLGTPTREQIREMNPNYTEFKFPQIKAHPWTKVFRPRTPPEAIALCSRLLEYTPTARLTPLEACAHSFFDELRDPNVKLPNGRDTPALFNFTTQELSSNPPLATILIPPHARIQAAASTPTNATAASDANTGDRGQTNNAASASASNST
Protocol: as §1

## C[S+]([O-])CCCCN1C(=S)SCC1O (stereo not drawn) [4-MSOB HTT, 4-hydroxy-3-(4-(methylsulfinyl)butyl)thiazolidine-2-thione]
HepG2 cells; 3 washing steps
  Amount of analyte in supernatant after cell lysis: 810 ± 140 fmol
  Amount of analyte in supernatant before cell lysis: 760 ± 190 fmol
  Increase due to cell lysis: 56 ± 55 fmol
HepG2 cells; 6 washing steps
  Amount of analyte in supernatant after cell lysis: 21 ± 5 fmol
  Amount of analyte in supernatant before cell lysis: 1.7 ± 0.3 fmol
  Increase due to cell lysis: 20 ± 5 fmol
[1]
  inhibition at 100 µM: ~29%

## C=CCN1C(=S)SCC1O (stereo not drawn) [allyl HTT, 3-allyl-4-hydroxythiazolidine-2-thione]
HepG2 cells; 3 washing steps
  Amount of analyte in supernatant after cell lysis: 1,060 ± 140 fmol
  Amount of analyte in supernatant before cell lysis: 520 ± 170 fmol
  Increase due to cell lysis: 540 ± 160 fmol
HepG2 cells; HepG2 cells
  measured ratio for the higher uptake of allyl HTT compared to 4-MSOB HTT: 27 fold
[2]
  inhibition at 100 µM: ~20%
